What follows are compounds tested on Mus musculus (assay: Antiinflammatory activity against mouse assessed as inhibition TPA-induced ear edema at 0.5 mg/kg).
Assay type: functional
Set-up: scale not given: the % may be the effect or the level left

First: C=C1CC[C@@H](O)[C@]2(C)CC[C@@H](C(C)C)[C@@H](O)[C@@H]12
Second: CC1=CC[C@@H](O)[C@]2(C)CC[C@H](C(C)C)[C@H](O)[C@@H]12
The Activity of the first is higher: 29.9% for the first, 28% for the second.

`C=C1CC[C@@H]2[C@H]([C@H]3[C@H]1CC[C@]3(C)O)C2(C)C` [SPATHULENOL] was tested, and the Activity was 31.5%.

From ChEMBL document CHEMBL1151221, “Three new sesquiterpenes from Croton arboreous” (2004)
